Experimental data reported in US7956074B2, “Aryl-isoxazolo-4-yl-oxadiazole derivatives” (Hoffman-La Roche Inc., priority 2005, dated 2011).

Target: T1, GABA A receptor α5β3γ2 (Homo sapiens, UniProt P18507+P31644)
T1 construct: expressed in transfected cells; host or cells: HEK293 cells, transiently transfected; membranes prepared
Assay: [3H]flumazenil competition binding, human GABA A α5β3γ2
Conditions: competition for [3H]flumazenil (0.5 nM) binding, HEK293 cells expressing human (transiently transfected) α5β3γ2; means of two determinations; read-out: Ki[nM] hα5
Summary of the method: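 HEK293 membranes expressing GABA-A receptors (human transiently, rat stably transfected) were used for [3H]flumazenil competition in Krebs-tris buffer, pH 7.5. Incubation ran 1 h at 4 °C to equilibrium, followed by filtration and scintillation counting. Ki values are means of two determinations.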

Molecule	Ki [nM]
Cc1onc(-c2ccccc2)c1-c1nnc(-c2ccc(NCCO)nc2)o1 [Example 137, 2-{5-[5-(5-Methyl-3-phenyl-isoxazol-4-yl)-[1,3,4]oxadiazol-2-yl]-pyridin-2-ylamino}-ethanol]	24.5
Cc1onc(-c2ccccc2)c1-c1nnc(-c2ccc(N3CCSCC3)nc2)o1 [Example 138, 4-{5-[5-(5-Methyl-3-phenyl-isoxazol-4-yl)-[1,3,4]oxadiazol-2-yl]-pyridin-2-yl}-thiomorpholine]	31
Cc1onc(-c2ccccc2)c1-c1nnc(-c2ccc(NC3CCOCC3)nc2)o1 [Example 139, {5-[5-(5-Methyl-3-phenyl-isoxazol-4-yl)-[1,3,4]oxadiazol-2-yl]-pyridin-2-yl}-(tetrahydro-pyran-4-yl)-amine]	16.4
Cc1onc(-c2ccccc2)c1-c1nnc(-c2ccc(N3CCC(O)CC3)nc2)o1 [Example 140, 5′-[5-(5-Methyl-3-phenyl-isoxazol-4-yl)-[1,3,4]oxadiazol-2-yl]-3,4,5,6-tetrahydro-2H-[1,2′]bipyridinyl-4-ol]	23.5
Cc1onc(-c2ccccc2)c1-c1nnc(-c2ccc(N3CCS(=O)(=O)CC3)nc2)o1 [Example 141, 4-{5-[5-(5-Methyl-3-phenyl-isoxazol-4-yl)-[1,3,4]oxadiazol-2-yl]-pyridin-2-yl}-thiomorpholine 1,1-dioxide]	17.7
Cc1onc(-c2ccccc2)c1-c1nnc(-c2ccc(N3CCOCC3)cn2)o1 [Example 142, 4-{6-[5-(5-Methyl-3-phenyl-isoxazol-4-yl)-[1,3,4]oxadiazol-2-yl]-pyridin-3-yl}-morpholine]	17.2
N-Cyclopropylmethyl-4-[5-(5-methyl-3-phenyl-isoxazol-4-yl)-[1,3,4]oxadiazol-2-yl]-benzamide [Example 79]	235
